Data reported in publication PMC8006714 (Chemical Communications (Cambridge, England), 2021).
Several values for one entry are separate records, joined by “and”; a condition that tells them apart may be missing. Identical values can stand only once. Entries after “also recorded” stand apart in the source; their conditions may differ. Like-named read-outs stand apart in the source and are kept apart here.

Legend:
SARS-CoV-2 M^pro [1] = target: T1, SARS-CoV-2 M^pro (Severe acute respiratory syndrome coronavirus 2, UniProt P0DTD1); test: biochemical; assay type: biochemical; settings: for inhibition at a fixed 20 μM inhibitor concentration: LOPAC and API library screens; for M^pro inhibition at single concentrations (in words): 20, 50 and 100 µM β-lactam, 30 min or 60 min preincubation (Fig. S17)
M^pro = tested on: M^pro; set-up: method as in doi:10.1101/2020.05.28.120642; settings: read-out: reported IC50; cited from earlier work
SARS-CoV-2 M^pro [2] = target: T1, SARS-CoV-2 M^pro; assay type: binding; settings: for covalent modification of M^pro preincubated with N3 (active site selectivity): 1 μM M^pro preincubated with 3 μM N3, 20 μM inhibitor; for covalent modification of M^pro (protein observed SPE-MS): 20 μM inhibitor, 20 mM HEPES pH 7.5, 50 mM NaCl; for covalent reaction with M^pro (protein observed SPE-MS): 1 µM Mpro, 100 fold excess of β-lactam, 25 min to 24 h
SARS-CoV-2 M^pro [3] = target: T1, SARS-CoV-2 M^pro; test: biochemical; assay type: biochemical
[4] = 30 min preincubation, SPE-MS dose response
[5] = 60 min preincubation, SPE-MS dose response

Structure (SMILES)	% Mpro inhibition at 20 µM (SARS-CoV-2 M^pro [1])	covalent modification of M^pro preincubated with N3 (active site selectivity) (SARS-CoV-2 M^pro [2])	covalent modification of M^pro (protein observed SPE-MS) (SARS-CoV-2 M^pro [2]; 1 μM M^pro)	covalent reaction with M^pro (protein observed SPE-MS) (SARS-CoV-2 M^pro [2])	other results
CC(=O)OC[C@H]1O[C@@H]([S-])[C@H](OC(C)=O)[C@@H](OC(C)=O)[C@@H]1OC(C)=O.CCP(CC)CC.[Au+] [Auranofin]	100.0%	–	–	–	inhibition at a fixed 20 μM inhibitor concentration (SARS-CoV-2 M^pro [1]): ≥ 80%; IC50 (M^pro): ~500 nM
O=C1C(SCCO)=C(SCCO)C(=O)c2ccccc21 [NSC 95397]	99.0%	does not selectively bind to the M pro active site	reacts with Mpro at multiple positions	–	–
Cc1ccc(S(=O)(=O)N[C@@H](Cc2ccccc2)C(=O)CCl)cc1 [TPCK, N-p-Toluenesulfonyl-L-phenylalanine chloromethyl ketone]	94.1%	does not covalently modify M^pro in the presence of N3; also recorded: substantial covalent modification was no longer observed; also recorded: does not react with TPCK	modifies M^pro in a covalent manner; also recorded: covalently reacts with Mpro	–	IC50 (SARS-CoV-2 M^pro [3]; pH 7.5, read-out: IC50 (SPE-MS)): ~800 nM and 830 nM
Oc1ccc2ccccc2c1SSc1c(O)ccc2ccccc12 [IPA-3, 1,1’-Disulfanediyldinaphthalen-2-ol]	–	multiple adducts observed with unmodified M^pro were diminished; also recorded: does not (at least substantially) covalently modify Mpro	reacts with Mpro at multiple positions	–	inhibition at a fixed 20 μM inhibitor concentration (SARS-CoV-2 M^pro [1]): ≥ 80%; inhibition at 20 µM (SARS-CoV-2 M^pro [1]; read-out: % Mpro inhibition at 20 µM): 99.1%; IC50 (SARS-CoV-2 M^pro [3]; IC50 (SPE-MS)): ~100 nM and 70 nM
Cc1cc(C(=O)N[C@@H](C)C(=O)N[C@H](C(=O)N[C@@H](CC(C)C)C(=O)N[C@H](/C=C/C(=O)OCc2ccccc2)C[C@@H]2CCNC2=O)C(C)C)no1 [Compound N3]	–	one major binding event	modifies M^pro in a covalent manner; also recorded: more than one reaction with the Mpro monomer; also recorded: predominantly (but not exclusively) a single N3 adduct was observed	–	IC50 (SARS-CoV-2 M^pro [3]; IC50 (SPE-MS)): 40 nM and 30 nM
O=C(O)[C@H]1/C(=C/CO)O[C@@H]2CC(=O)N21 [clavulanate]	–	–	–	(partial) inhibitor fragmentation was observed	–
CO[C@@]1(NC(=O)Cc2cccs2)C(=O)N2C(C(=O)O)=C(COC(N)=O)CS[C@@H]21 [cefoxitin]	–	–	–	evidence for more than one reaction was accrued	–
CCN1CCN(C(=O)N[C@@H](C(=O)N[C@]2(OC)C(=O)N3C(C(=O)O)=C(CSc4nnnn4C)CS[C@@H]32)[C@H](C)O)C(=O)C1=O [cefbuperazone]	–	–	–	evidence for more than one reaction was accrued	–
CO[C@@]1(NC(=O)C2SC(=C(C(N)=O)C(=O)O)S2)C(=O)N2C(C(=O)O)=C(CSc3nnnn3C)CS[C@@H]21 (stereo partly drawn) [cefotetan]	–	–	–	evidence for more than one reaction was accrued	–
O=c1c2ccccc2[se]n1-c1ccccc1 [Ebselen]	–	–	covalently reacts multiple times with Mpro	–	inhibition at 20 µM (SARS-CoV-2 M^pro [1]; read-out: % Mpro inhibition at 20 µM, library of FDA-approved small molecules, 20 µM compound, […] Mpro, 2.0 µM TSAVLQ/SGFRK-NH2): 99.1%; covalent modification of M^pro (protein observed SPE-MS) (SARS-CoV-2 M^pro [2]; 1 μM M^pro, listed as ebselen): modifies M^pro in a covalent manner; also recorded: time dependent modification of multiple residues
Cc1ccc(S(=O)(=O)/C=C/C#N)cc1 [BAY 11-7082]	92.0%	multiple adducts observed with unmodified M^pro were diminished; also recorded: to a lesser extent compared to active site free M pro	reacts with Mpro at multiple position	–	–
CC(=O)OCC1=C(C(=O)[O-])N2C(=O)[C@@H](NC(=O)CCC[C@@H](N)C(=O)[O-])[C@H]2SC1.[Zn+2] [Cephalosporin C zinc salt]	92.3%	–	–	–	M^pro inhibition (in words) (SARS-CoV-2 M^pro [1]): inhibited; Hill slope (SARS-CoV-2 M^pro [3]; 22 minutes preincubation, SPE-MS): 1.83
COC1(NC(=O)Cc2ccccc2)C(=O)N2C1[S+]([O-])C(C)(C)C2C(=O)OCc1ccc([N+](=O)[O-])cc1 (stereo not drawn) [Compound 2, C6-methoxy penicillin G sulfoxide C3 p-nitrobenzyl ester]	–	Minor further modification	does not efficiently modify M^pro through covalent reaction	–	M^pro inhibition at single concentrations (in words) (SARS-CoV-2 M^pro [1]): moderate inhibition; Hill slope (SARS-CoV-2 M^pro [3]; [4]): 2.2 ± 0.1; Hill slope (SARS-CoV-2 M^pro [3]; [5]): 2.1 ± 0.1; IC50 (SARS-CoV-2 M^pro [3]; IC50 (SPE-MS)): ~3500 nM and 3500 nM and 2100 nM; extent of covalent modification of M^pro (SARS-CoV-2 M^pro [2]; 1 μM M^pro, 20 μM β-lactam): < 10%
Cc1ccc(S(=O)(=O)N[C@@H](CCCCN)C(=O)CCl)cc1.Cl [TLCK, Nα-p-Toluenesulfonyl-L-lysine chloromethyl ketone hydrochloride]	88.3%	does not react with TLCK	covalently reacts with M pro	–	covalent modification of M^pro preincubated with N3 (active site selectivity) (SARS-CoV-2 M^pro [2]; listed as Nα-p-toluenesulfonyl-L-lysine chloromethyl ketone): substantial covalent modification was no longer observed
CO[C@@]1(NC(=O)C(C(=O)O)c2ccc(O)cc2)C(=O)N2C(C(=O)O)=C(CSc3nnnn3C)CO[C@@H]21 (stereo partly drawn) [moxalactam]	–	–	–	(partial) inhibitor fragmentation was observed	–
CC1(C)[C@H](C(=O)OCc2ccccc2)N2C(=O)[C@@H](NC(=O)COc3ccccc3)[C@H]2S1(=O)=O [Compound 1, penicillin V sulfone C3 benzyl ester]	–	no reaction	A single molecule 1 covalently modifies M^pro; also recorded: Covalent modification was observed	–	M^pro inhibition at single concentrations (in words) (SARS-CoV-2 M^pro [1]): moderate inhibition; Hill slope (SARS-CoV-2 M^pro [3]; [4]): 1.4 ± 0.4; Hill slope (SARS-CoV-2 M^pro [3]; [5]): 1.6 ± 0.2; IC50 (SARS-CoV-2 M^pro [3]; IC50 (SPE-MS)): ~1500 nM and 1500 nM and 900 nM
[Cl-].[Cl-].[Zn+2] [ZnCl2]	–	–	–	–	Hill slope (SARS-CoV-2 M^pro [3]): 2.23 and 2.07; IC50 (SARS-CoV-2 M^pro [3]; read-out: IC50): 340 nM and 370 nM
C[C@]1(Cn2ccnn2)[C@H](C(=O)O)N2C(=O)C[C@H]2S1(=O)=O [tazobactam]	–	–	–	increased over time	–
O=C([O-])c1ccccc1-c1c2cc(I)c(=O)c(I)c-2oc2c(I)c([O-])c(I)cc12.[Na+].[Na+] [Erythrosine sodium]	86.5%	–	–	–	–
CC1=C(C(=O)O)N2C(=O)[C@@H](NC(=O)[C@H](N)c3ccccc3)[C@H]2SC1 [cephalexin]	–	–	–	–	M^pro inhibition (in words) (SARS-CoV-2 M^pro [1]; SPE-MS, concentration not given): no Mpro inhibition was observed
